Remaining target (mRNA or protein) (fraction of control) data for 60 sequences are collected here from the OligoGym collection.

These antisense oligonucleotides have a phosphorothioate backbone; sugars and methylation of C are not fully specified.

One data set has as its target GNA11. The settings on record: ASO.
Another data set deals with TNFRSF1A. The settings on record: ASO.
Note: test concentration or dose not given here.

With CTGGATGCCCGGGTCCTC, the remaining target (mRNA or protein) (fraction of control) with GNA11 is ≥ 1.

On to CTTCACCTCATCGCTCAG, for which the remaining target (mRNA or protein) (fraction of control) with GNA11 stood at 0.8. Still for that read-out and setting: the figure for CTTGAGCTCGCGCCGGGC is 0.69; for CTTGATGGCACTGACGTA it is 0.22. Sequence CTTGTCCTCCTCCGAGTA displayed a remaining target (mRNA or protein) (fraction of control) in the data set with GNA11 of 0.21. Still for that read-out and setting: as for GACTCCTTCACCTCATCG, the figure is 0.85; as for GATCCACTTCCTCCGCTC, 0.41; as for GATGAACTCCCGCGCCGC, 0.48. In the data set with GNA11, GATGCTCGAAGGTGGTCA gave a remaining target (mRNA or protein) (fraction of control) of 0.67. Still for that read-out and setting: as for GATGGACTCCAGAGTCAT, the figure is ≥ 1.

With GATGGTGTCCTTCACGGC, in the data set with GNA11, the remaining target (mRNA or protein) (fraction of control) was ≥ 1. Same read-out and setting: the figure for GCAGCAGCAGCTTGAGCT is ≥ 1.

In turn, GCAGGTAGCCCAAGGTGG registered a remaining target (mRNA or protein) (fraction of control) with GNA11 of 0.8. Same read-out and setting: as for GCAGGTCCTTCTTGTTGA, the figure is 0.94. Same read-out and setting: as for GCCATGATGGACTCCAGA, the figure is 0.25; as for GCCCGTGCCGAGCAGCAG, ≥ 1; as for GCCTTGTTCTGCTCGTAC, 0.75. For GCGAGTACAGGATCTTGT, the remaining target (mRNA or protein) (fraction of control) in the data set with GNA11 turned out to be 0.83. Still for that read-out and setting: the figure for GCTGAGGGCGACGAGAAA is 0.25; for GCTGGTACTCGCGCCTGC it is 0.59; for GGAGGAGTTCTGGAACCA it is 0.36. On the same count and under the same terms, the figure for GGTCAACGTCGGTCAGGT is 0.82; for GGTCACCTTCTCCACGTC it is 0.73. The same measure, in the same setting: as for GGTCCGGAACAGGGCTTT, the figure is 0.74; as for GGTGGTGGGCACGCGGAC, ≥ 1; as for GGTTCAGGTCCACGAACA, 0.29.

With GTAGATGATCTTGTCGCT, in the data set with GNA11, the remaining target (mRNA or protein) (fraction of control) was ≥ 1. Same read-out and setting: as for GTAGCCGGCGCCGTGGAT, the figure is 0.99; as for GTAGGTGATGATGGTCCG, ≥ 1; as for GTCAGGTAGTACTTGGCA, 0.24. Regarding GTGGCGATGCGGTCAACG, the remaining target (mRNA or protein) (fraction of control) with GNA11 came out at 0.99.

On to TACTTGGCAGAGTCGGAG, for which the remaining target (mRNA or protein) (fraction of control) with GNA11 turned out to be 0.66.

In the case of TAGACGAGCTTGGTGAAG, the remaining target (mRNA or protein) (fraction of control) in the data set with GNA11 was ≥ 1. As for TAGAGGATCTTGAGCGTC, the remaining target (mRNA or protein) (fraction of control) with GNA11 was ≥ 1. The same measure, in the same setting: the figure for TCAGGTTCAGCTGCAGGA is 0.97. TCCGTGCTCGCCCCTGCC came in with a remaining target (mRNA or protein) (fraction of control) with TNFRSF1A of 0.81.

In the data set with TNFRSF1A, TCCTCCAGGCAGCCCAGC showed a remaining target (mRNA or protein) (fraction of control) of 0.59.

Take TCCTGGATGCCCGGGTCC: the remaining target (mRNA or protein) (fraction of control) in the data set with GNA11 amounted to 0.7.

Regarding TCGATGATGCCGGTGGTG, the remaining target (mRNA or protein) (fraction of control) with GNA11 was ≥ 1. Regarding TCGATTTCCCACAAACAA, in the data set with TNFRSF1A, the remaining target (mRNA or protein) (fraction of control) turned out to be 0.99.

The sequence TCGTGGTCGCTCAGCCCT yielded a remaining target (mRNA or protein) (fraction of control) with TNFRSF1A of 0.72. On the same count and under the same terms, as for TCTGAAGCGGTGAAGGAG, the figure is ≥ 1; as for TCTTCTCCCTGTCCCCTA, 0.87; as for TGAAGGTGGAACTGGGCA, 0.73. For the sequence TGAGGAAGAGGATGACGG, in the data set with GNA11, the remaining target (mRNA or protein) (fraction of control) was ≥ 1. The sequence TGAGGGTTGAGACTCGGG returned a remaining target (mRNA or protein) (fraction of control) with TNFRSF1A of 0.98. The same measure, in the same setting: as for TGCCTTAGGACAGTTCAG, the figure is 0.8.

TGCTCGTACTTGTAGAGG: the remaining target (mRNA or protein) (fraction of control) with GNA11 worked out at 0.93. Turning to TGGCGGTGAAGATGTTCT, the remaining target (mRNA or protein) (fraction of control) with GNA11 was ≥ 1.

For TGTAGAGGATCTTGAGCG, the remaining target (mRNA or protein) (fraction of control) with GNA11 was ≥ 1. The same measure, in the same setting: the figure for TGTCACGTTCTCAAAGCA is ≥ 1; for TGTCCTCCTCCGAGTAGC it is ≥ 1.

Turning to TGTTCTCCAGGTCGAAAG, the remaining target (mRNA or protein) (fraction of control) with GNA11 stood at 0.67. Still for that read-out and setting: the figure for TGTTCTGGTAGACGAGCT is ≥ 1.

For the sequence TTAAACCAATGAAGAGGA, the remaining target (mRNA or protein) (fraction of control) in the data set with TNFRSF1A was determined as 0.72. On the same count and under the same terms, the figure for TTCTCTGGACTGAGGCTC is 0.81. For TTGGCCTTGTTCTGCTCG, in the data set with GNA11, the remaining target (mRNA or protein) (fraction of control) was ≥ 1. As for TTGGGCTCAGGGCAGTGT, in the data set with TNFRSF1A, the remaining target (mRNA or protein) (fraction of control) was ≥ 1. In the data set with TNFRSF1A, TTGTTCCGTGCTCGCCCC gave a remaining target (mRNA or protein) (fraction of control) of 0.59.

In the case of TTTTCACTCCAATAATGC, the remaining target (mRNA or protein) (fraction of control) in the data set with TNFRSF1A is ≥ 1.
